Where a name gives a salt, the structure may show the parent alone. Read-outs that look alike come from different tables or passages of the source.
Columns and labels:
M1 muscarinic receptor = molecular target: T1, M1 muscarinic receptor (Rattus norvegicus, UniProt P08482); assay: M1 receptor binding ([^3 H]-pirenzepine); design: species or system rat (male Sprague-Dawley)
T1 sequence (P08482 1-460): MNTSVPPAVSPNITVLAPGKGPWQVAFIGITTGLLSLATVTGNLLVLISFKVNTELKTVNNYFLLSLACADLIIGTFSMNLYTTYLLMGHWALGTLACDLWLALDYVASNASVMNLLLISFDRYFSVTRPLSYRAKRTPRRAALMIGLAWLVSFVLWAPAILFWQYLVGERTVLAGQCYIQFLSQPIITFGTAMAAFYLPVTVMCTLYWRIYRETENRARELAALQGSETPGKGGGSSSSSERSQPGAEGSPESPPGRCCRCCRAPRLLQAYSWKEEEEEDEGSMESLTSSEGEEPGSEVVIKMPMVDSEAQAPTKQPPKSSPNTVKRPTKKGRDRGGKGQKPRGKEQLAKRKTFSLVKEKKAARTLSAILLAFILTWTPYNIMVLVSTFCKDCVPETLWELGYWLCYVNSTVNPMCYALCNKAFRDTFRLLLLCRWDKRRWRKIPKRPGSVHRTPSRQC
Description: Compounds are tested for their ability to affect M1 muscarinic binding through use of [^3 H]-pirenzepine ([^3 H]PZ) as a prototypic M1 receptor ligand. Male Sprague-Dawley (Charles River) rats are used. Dose selection is typically in the concentration range of 10^-9 to 10^-4 M. Test and reference compounds are dissolved and diluted in water or ethanol and are then added to the assay buffer. The appropriate vehicle is added to the assay buffer for control testing.
The rats (approximately 300 gm body weight) have free access to food and water and are housed in groups of four to six. On the test day, the rats are euthanized by decapitation and brain tissue is dissected and homogenized using a hand-held teflon-coated pestle, in 20 volumes of 0.32M sucrose (20 strokes at 4° C.). After centrifugation (747×g for 10 minutes at 4° C.), the resultant supernatant is decanted and recentrifuged (18677×g for 20 minutes at 4° C.). The resultant pellet is resuspended in the original volume of 0.32M sucrose and frozen. After thawing, the suspension is diluted (1:1 v/v) with 10 mM Na2 HPO4 /KH2 PO4 buffer (pH=7.4). [^3 H]PZ (0.5 nM, 0.04 μCi) is then incubated with a 100 μl sample of the tissue suspension in the above buffer (1 ml final volume, including a 10 μl sample of test compound or vehicle). […] After 60 minutes of incubation at 25° C. (in the dark), the binding is terminated by vacuum filtration onto Whatman GF/B filters (pre-soaked for 60 minutes in 0.1% (w/v) polyethylenimine to reduce non-specific binding). After three washes with the previously mentioned buffer (4° C., 3 ml/wash), the vacuum is allowed to run for two minutes before the filter-trapped radioactivity is assayed by liquid scintillation spectroscopy.
Data are presented as the percent inhibition ([control-test]/control×100%) or enhancement ([test-control]/control×100%) of [^3 H]PZ binding by the test or reference compound. The IC50 value (the drug concentration which causes a 50% inhibition of specific [^3 H]PZ binding) is calculated through the use of the EDOSE program (with probit transformation written by a person for use in STAT80). Increases in [^3 H]PZ are reported as percent increase (versus control) for a given test drug concentration.

M2 receptors [1] = molecular target: T2, M2 receptors (Rattus norvegicus, UniProt P10980); assay: biochemical; type: binding
T2 sequence (P10980 1-466): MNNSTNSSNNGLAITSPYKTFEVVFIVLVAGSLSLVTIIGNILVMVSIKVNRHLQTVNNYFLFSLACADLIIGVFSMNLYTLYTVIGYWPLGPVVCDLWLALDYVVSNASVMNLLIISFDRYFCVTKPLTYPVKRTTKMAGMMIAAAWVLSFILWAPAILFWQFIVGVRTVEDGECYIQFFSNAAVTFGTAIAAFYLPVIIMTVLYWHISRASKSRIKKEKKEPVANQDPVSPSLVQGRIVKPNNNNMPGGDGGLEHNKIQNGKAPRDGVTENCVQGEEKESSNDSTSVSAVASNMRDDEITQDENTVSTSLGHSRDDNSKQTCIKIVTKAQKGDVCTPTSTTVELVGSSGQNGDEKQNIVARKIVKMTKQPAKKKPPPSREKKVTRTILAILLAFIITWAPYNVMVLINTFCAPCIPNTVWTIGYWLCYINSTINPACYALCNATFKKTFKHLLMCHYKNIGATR

M2 receptors [2] = assay: biochemical; type: binding; settings: Table 1; ratio of M2 IC50 to M1 IC50
[3] = test system: scopolamine-induced hyperactivity, a proposed muscarinic M1 -mediated effect; assay: Scopolamine-induced hyperactivity (locomotor activity); type: in vivo, rat; settings: for Total activity: N=10
Description: Compounds were evaluated for the ability to attenuate scopolamine-induced hyperactivity, a proposed muscarinic M1 -mediated effect. Animals were permitted to habituate for 30 minutes in locomotor activity chambers (Digiscan, Omnitech; Columbus, Ohio) in which infrared detectors were used to measure movement in 3 axes. The animals were then injected i.p. with vehicle alone, scopolamine alone (1.7 mg/kg) or both scopolamine and one dose of the test compound. Animals were then replaced in the chambers and locomotor activity was measured for an additional 1 hour period. Total activity measures (vertical+horizintal movements) were collected and statistically analyzed in four 15 minute periods.

[4] = Table 1, rat brain tissue, [^3 H]PZ 0.5 nM, read-out: ^3 H-Pirenzepine M1 IC50

| Molecule | IC50 (M1 muscarinic receptor; [4]) | IC50 (M2 receptors [1]; read-out: ^3 H-QNB M2 IC50) | M2/M1 (M2 receptors [2]) | further results |
| --- | --- | --- | --- | --- |
| 3-[[[(3-chlorophenyl)amino]carbonyl]oxy]-N,N,N-trimethyl-1-propynaminium chloride [reference compound] |  |  |  | IC50 (M1 muscarinic receptor; typical results, reference drugs, read-out: IC50, [^3 H]PZ binding (M1)): 1.3 µM; IC50 (M2 receptors [1]; typical results, reference drugs, read-out: IC50, [^3 H]QNB binding (M2)): 42 µM |
| Cl.Cl.c1ccc2nc(NCCCN3CCOCC3)ccc2c1 [Example 2, N-[3-(4-Morpholinyl)propyl]-2-quinolinamine dihydrochloride] | 2.5 µM | 116 µM | 46 |  |
| Cc1cc(NCCCN2CCN(C)CC2)nc2ccccc12 [Example 3, 4-Methyl-N-[3-(4-methyl-1-piperazinyl)propyl]-2-quinolinamine (E)-2-butenedioate (1:2) hemihydrate] | 0.6 µM | 28 µM | 46 |  |
| Cc1cc(NCCCCN2CCOCC2)nc2ccccc12 [Example 4, 4-Methyl-N-[4-(4-morpholinyl)butyl]-2-quinolinamine (E)-2-butenedioate (1:1.15)] | 0.54 µM | 22 µM | 41 |  |
| Cc1cc(NCCN2CCOCC2)nc2ccccc12 [Example 5, 4-Methyl-N-[2-(4-morpholinyl)ethyl]-2-quinolinamine (E)-2-butenedioate (3:2) quarter hydrate] | 9.7 µM | 200 µM | 21 |  |
| Cc1cc(NCCCCN2CCN(C)CC2)nc2ccccc12 [Example 6, 4-Methyl-N-[4-(4-methyl-1-piperazinyl)butyl]-2-quinolinamine (E)-2-butenedioate (1:2) one and three quarter hydrate] | 0.37 µM | 5.5 µM | 15 |  |
| Cc1cc(NCCCN2CCCC2=O)nc2ccccc12 [Example 7, 4-Methyl-N-[3-(1-pyrrolidin-2-on)propyl]-2-quinolinamine hydrochloride three-quarter hydrate] | 1.3 µM | 20 µM | 15 |  |
| Cc1cc(NCCCN2CCCCC2)nc2ccccc12 [Example 8, 4-Methyl-N-[3-(1-piperidinyl)propyl]-2-quinolinamine (E)-2-butenedioate (1:1) hemihydrate] | 0.42 µM | 4.6 µM | 11 |  |
| CCc1cc(NCCCN2CCOCC2)nc2ccccc12 [Example 9, 4-Ethyl-N-[3-(4-morpholinyl)propyl]-2-quinolinamine dihydrochloride three quarter hydrate] | 2 µM | 44 µM | 22 |  |
| c1ccc2c(C3CCCCC3)cc(NCCCN3CCOCC3)nc2c1 [Example 10, 4-Cyclohexyl-N-[3-(4-morpholinyl)propyl]-2-quinolinamine dihydrochlorideone quarter hydrate] | 2.3 µM | 13 µM | 6 |  |
| CCN(CC)CCCNc1cc(C)c2ccccc2n1 [Example 11, N,N-Diethyl-N'-(4-methyl-2-quinolinyl)-1,3-propanediamine dihydrochloride hemihydrate] | 0.21 µM | 18 µM | 86 |  |
| Cc1cc(NCCN(C)C)nc2ccccc12.O=C(O)/C=C/C(=O)O [Example 12, N,N-Dimethyl-N'-(4-methyl-2-quinolinyl)-1,2-ethanediamine (E)-2-butenedioate (1:1)] | 1.32 µM | 35 µM | 27 |  |
| Cc1cc(NCCCN(C)C)nc2ccccc12.O=C(O)/C=C/C(=O)O.O=C(O)/C=C/C(=O)O [Example 13, N,N-Dimethyl-N'-(4-methyl-2-quinolinyl)-1,3-propanediamine (E)-2-butenedioate (1:2)] | 0.82 µM | 21 µM | 26 |  |
| O=C1CCCN1CC#CCN1CCCC1 [Oxotremorine sesquifumarate, reference compound] |  |  |  | IC50 (M1 muscarinic receptor): 0.11 µM; IC50 (M2 receptors [1]): 1.3 µM |
| O=C1CCCN1CC#CCN1CCCC1 [Oxotremorine] |  |  |  | minimal effective dose ([3]; Rattus norvegicus, ip, read-out: minimum effective dose): 0.3 mg/kg; effect on scopolamine hyperactivity at lower doses ([3]; doses below 0.3 mg/kg): some effect of oxotremorine was seen at lower doses; Total activity ([3]; scopolamine + oxotremorine 0.03 mg/kg, 15 min): 3020; Total activity ([3]; scopolamine + oxotremorine 0.03 mg/kg, 30 min): 4083; Total activity ([3]; scopolamine + oxotremorine 0.03 mg/kg, 45 min): 3332; Total activity ([3]; scopolamine + oxotremorine 0.03 mg/kg, 60 min): 2265; Total activity ([3]; scopolamine + oxotremorine 0.1 mg/kg, 15 min): 5709; Total activity ([3]; scopolamine + oxotremorine 0.1 mg/kg, 30 min): 4305; Total activity ([3]; scopolamine + oxotremorine 0.1 mg/kg, 45 min): 3725; Total activity ([3]; scopolamine + oxotremorine 0.1 mg/kg, 60 min): 2571; Total activity ([3]; scopolamine + oxotremorine 0.3 mg/kg, 15 min): 2523; Total activity ([3]; scopolamine + oxotremorine 0.3 mg/kg, 30 min): 1819; Total activity ([3]; scopolamine + oxotremorine 0.3 mg/kg, 45 min): 2351; Total activity ([3]; scopolamine + oxotremorine 0.3 mg/kg, 60 min): 1573 |
